The source made the active and inactive calls. The calls are words filed in the database; no cut-off is given here.

The first test addresses T1, Peroxisome proliferator-activated receptor gamma (Homo sapiens) (UniProt P37231).
T1 sequence (whole entry): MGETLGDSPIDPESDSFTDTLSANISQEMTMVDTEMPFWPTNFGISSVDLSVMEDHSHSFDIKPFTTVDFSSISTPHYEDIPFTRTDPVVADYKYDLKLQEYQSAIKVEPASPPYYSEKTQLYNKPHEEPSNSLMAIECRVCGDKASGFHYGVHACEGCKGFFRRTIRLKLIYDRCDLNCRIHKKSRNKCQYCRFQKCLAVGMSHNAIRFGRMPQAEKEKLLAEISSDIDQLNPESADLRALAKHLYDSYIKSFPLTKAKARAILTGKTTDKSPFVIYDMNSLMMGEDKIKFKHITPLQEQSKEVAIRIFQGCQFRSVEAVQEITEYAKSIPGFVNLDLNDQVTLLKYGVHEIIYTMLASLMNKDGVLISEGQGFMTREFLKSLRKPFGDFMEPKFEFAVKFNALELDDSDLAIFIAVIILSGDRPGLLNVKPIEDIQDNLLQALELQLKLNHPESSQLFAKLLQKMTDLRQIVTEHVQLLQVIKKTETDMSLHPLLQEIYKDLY
The experiment in a line: Agonist activity at human PPARgamma transactivation expressed in human HePG2 cells up to1 uM. It counts as functional, cell-based.
For the molecule `COc1ccc(OC(=O)N(CCCCc2nc(-c3ccc(C)cc3)oc2C)CC(=O)O)cc1`, the outcome was inactive.

The test system of the next test is HpG2. The experiment in a line: Selectivity ratio of EC50 for human PPARgamma receptor to human PPARalpha receptor expressed in human HpG2 cells. It counts as cell-based.
Take `Cc1ccc(-c2nc(COc3ccc(C[C@H]4CO[C@@](C)(C(=O)O)OC4)cc3)c(C)o2)cc1`: the Ratio EC50 worked out at 0.2.

Take `COc1ccc(OC(=O)N(CCCCCc2coc(-c3ccc(C)cc3)n2)CC(=O)O)cc1`: the Ratio EC50 came out at 12.

Consider `Cc1ccc(-c2nc(CCCCCCO/N=C(/CCC(=O)O)c3ccccc3)c(C)o2)cc1`, for which the Ratio EC50 was 1000.

With `COc1ccc(OC(=O)N(CCCCCCc2nc(-c3ccc(C)cc3)oc2C)CC(=O)O)cc1`, the Ratio EC50 worked out at 13.

On to `Cc1ccc(-c2nc(CCCCO/N=C(\CCC(=O)O)c3ccccc3)c(C)o2)cc1`, for which the Ratio EC50 is 113000.

Consider `Cc1ccc(-c2nc(CCCCCO/N=C(/CCC(=O)O)c3ccccc3)c(C)o2)cc1`, for which the Ratio EC50 was 15.

In the next test the target is T2, Peroxisome proliferator-activated receptor alpha (Homo sapiens) (UniProt Q07869).
T2 sequence (whole entry): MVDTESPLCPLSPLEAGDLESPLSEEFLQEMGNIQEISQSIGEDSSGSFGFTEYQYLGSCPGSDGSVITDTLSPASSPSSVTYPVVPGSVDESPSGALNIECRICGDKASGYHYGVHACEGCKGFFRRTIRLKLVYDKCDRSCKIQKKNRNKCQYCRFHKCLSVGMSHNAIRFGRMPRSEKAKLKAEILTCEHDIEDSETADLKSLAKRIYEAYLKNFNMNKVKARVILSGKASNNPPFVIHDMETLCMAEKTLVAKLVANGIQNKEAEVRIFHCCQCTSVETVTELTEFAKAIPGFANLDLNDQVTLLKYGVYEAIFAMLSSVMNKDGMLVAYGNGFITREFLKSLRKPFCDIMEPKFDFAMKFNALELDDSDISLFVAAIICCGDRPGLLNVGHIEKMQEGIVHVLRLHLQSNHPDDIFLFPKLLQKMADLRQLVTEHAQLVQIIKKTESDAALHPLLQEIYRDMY
The experiment in a line: Agonist activity at human PPARalpha transactivation expressed in human HePG2 cells up to1 uM. It counts as functional, cell-based.
As to `COc1ccc(OC(=O)N(CCCCc2nc(-c3ccc(C)cc3)oc2C)CC(=O)O)cc1`, the result was inactive.

A further test concerns the target T3, Peroxisome proliferator-activated receptor gamma (Homo sapiens, UniProt P37231).
T3 sequence (P37231 whole entry): T1 sequence (whole entry)
The experiment in a line: Agonist activity at human PPARgamma transactivation expressed in human HePG2 cells.
The term EC50 denotes the concentration giving half of the maximal effect. Low readings indicate greater potency, high ones weaker potency. `Cc1ccc(-c2nc(CCCC[C@H]3CO[C@@](C)(C(=O)O)OC3)c(C)o2)cc1` had an EC50 of 6850 nM.

In the case of `COc1ccc(OC(=O)N(CCCCCc2coc(-c3ccc(C)cc3)n2)CC(=O)O)cc1`, it took 560 nM to reach a half-maximal effect (EC50). This EC50 lies about 12-fold lower than the previous one.

On to `Cc1ccc(-c2nc(CCCCCCO/N=C(/CCC(=O)O)c3ccccc3)c(C)o2)cc1`, for which the midpoint of the response, the EC50, lay at 100 nM.

Regarding `COc1ccc(OC(=O)N(CCCCCCc2nc(-c3ccc(C)cc3)oc2C)CC(=O)O)cc1`, the EC50 was found to be 450 nM.

`Cc1ccc(-c2nc(CCCCO/N=C(\CCC(=O)O)c3ccccc3)c(C)o2)cc1` showed an EC50 of 430 nM. The EC50 values of the last two molecules are within 1.5-fold of each other.

In turn, `Cc1ccc(-c2nc(CCCCCO/N=C(/CCC(=O)O)c3ccccc3)c(C)o2)cc1` yielded an EC50 of 31 nM.

For the next test, the target named is T4, Peroxisome proliferator-activated receptor delta (Homo sapiens) (UniProt Q03181).
T4 sequence (whole entry): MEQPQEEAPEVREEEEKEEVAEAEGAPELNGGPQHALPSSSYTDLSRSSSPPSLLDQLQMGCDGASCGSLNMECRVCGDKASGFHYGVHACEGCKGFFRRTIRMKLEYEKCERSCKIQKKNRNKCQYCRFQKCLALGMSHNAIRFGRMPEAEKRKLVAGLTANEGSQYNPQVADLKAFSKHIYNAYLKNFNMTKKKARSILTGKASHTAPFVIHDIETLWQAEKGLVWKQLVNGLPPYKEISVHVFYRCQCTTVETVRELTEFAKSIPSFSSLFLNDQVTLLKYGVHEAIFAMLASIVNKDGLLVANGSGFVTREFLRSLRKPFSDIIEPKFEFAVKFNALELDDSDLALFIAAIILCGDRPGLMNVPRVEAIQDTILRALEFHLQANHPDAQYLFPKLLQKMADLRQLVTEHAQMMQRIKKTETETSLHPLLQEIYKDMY
The experiment in a line: Agonist activity at human PPARdelta transactivation expressed in human HePG2 cells up to 1 uM. It counts as functional, cell-based.
As for `Cc1ccc(-c2nc(COc3ccc(C[C@H]4CO[C@@](C)(C(=O)O)OC4)cc3)c(C)o2)cc1`, the outcome was inactive.

For the molecule `Cc1ccc(-c2nc(CCCC[C@H]3CO[C@@](C)(C(=O)O)OC3)c(C)o2)cc1`, the result was inactive.

`COc1ccc(OC(=O)N(CCCCCc2coc(-c3ccc(C)cc3)n2)CC(=O)O)cc1`: the outcome was inactive.

In the case of `Cc1ccc(-c2nc(CCCCCCO/N=C(/CCC(=O)O)c3ccccc3)c(C)o2)cc1`, the result was inactive.

As to `Cc1oc(-c2ccccc2)nc1COc1ccc(CO/N=C(\CCC(=O)O)c2ccccc2)cc1` [IMIGLITAZAR], the result was inactive.

Take `COc1ccc(OC(=O)N(CCCCc2nc(-c3ccc(C)cc3)oc2C)CC(=O)O)cc1`: the result was inactive.

For the molecule `COc1ccc(OC(=O)N(CCCCCCc2nc(-c3ccc(C)cc3)oc2C)CC(=O)O)cc1`, the outcome was inactive.

`Cc1ccc(-c2nc(CCCCO/N=C(\CCC(=O)O)c3ccccc3)c(C)o2)cc1`: the outcome was inactive.

Take `COc1ccc(OC(=O)N(CC(=O)O)Cc2ccc(OCCc3nc(-c4ccccc4)oc3C)cc2)cc1` [MURAGLITAZAR]: the outcome was inactive.

In the case of `Cc1ccc(-c2nc(CCCCCO/N=C(/CCC(=O)O)c3ccccc3)c(C)o2)cc1`, the result was inactive.

Another test has as its target T5, Peroxisome proliferator-activated receptor alpha (Homo sapiens, UniProt Q07869).
T5 sequence (Q07869 whole entry): T2 sequence (whole entry)
The experiment in a line: Agonist activity at human PPARalpha transactivation expressed in human HePG2 cells. In kind it is functional, cell-based.
Turning to `Cc1ccc(-c2nc(COc3ccc(C[C@H]4CO[C@@](C)(C(=O)O)OC4)cc3)c(C)o2)cc1`, the EC50 was found to be 72 nM.

On to `COc1ccc(OC(=O)N(CCCCCc2coc(-c3ccc(C)cc3)n2)CC(=O)O)cc1`, for which the EC50 was 44 nM.

Consider `Cc1ccc(-c2nc(CCCCCCO/N=C(/CCC(=O)O)c3ccccc3)c(C)o2)cc1`, for which the EC50 amounted to 0.1 nM.

In turn, `Cc1oc(-c2ccccc2)nc1COc1ccc(CO/N=C(\CCC(=O)O)c2ccccc2)cc1` [IMIGLITAZAR] yielded an EC50 of 8 nM. Compared with the last molecule, the EC50 is about 80-fold higher.

As for `COc1ccc(OC(=O)N(CCCCCCc2nc(-c3ccc(C)cc3)oc2C)CC(=O)O)cc1`, the EC50 is 34 nM. Against the preceding molecule, the EC50 is about 4.2-fold higher.

Regarding `Cc1ccc(-c2nc(CCCCO/N=C(\CCC(=O)O)c3ccccc3)c(C)o2)cc1`, the EC50 was 0.0038 nM.

Turning to `COc1ccc(OC(=O)N(CC(=O)O)Cc2ccc(OCCc3nc(-c4ccccc4)oc3C)cc2)cc1` [MURAGLITAZAR], the EC50 was found to be 150 nM. This EC50 lies about 39000-fold higher than the previous one.

`Cc1ccc(-c2nc(CCCCCO/N=C(/CCC(=O)O)c3ccccc3)c(C)o2)cc1`: the midpoint of the response, the EC50, lay at 2 nM. Against the preceding molecule, the EC50 is about 75-fold lower.
